The test system of this assay is Protease enzyme. Briefly: Residual protease activity in liquid detergent formulation after storage at 37° C. (tetrapeptide substrate assay). The assay is classed as biochemical. To be noted: activity determined at 40° C., TRIS pH 9, relative to t=0; for Residual activity after 2 weeks, 0.05% BHT / Residual activity after 4 weeks, 0.05% BHT: 'base' liquid detergent formulation + 0.06% by weight perfume component + 0.05% by weight BHT; for Residual activity after 2 weeks, 0.05% BHT / Residual activity after 2 weeks, No BHT: 2 weeks storage at 37° C.; for Residual activity after 4 weeks, 0.05% BHT / Residual activity after 4 weeks, No BHT: 4 weeks storage at 37° C.; for Residual activity after 2 weeks, No BHT / Residual activity after 4 weeks, No BHT: 'base' liquid detergent formulation + 0.06% by weight perfume component. The method, then:
To various samples of this ‘base’ liquid formulation 0.06% by weight based on said formulation of several types of perfume component—as indicated in the tables below—were added such that, as a result, each sample contains a different type of perfume component. To other samples of this ‘base’ formulation not only 0.06% by weight of said perfume components but also 0.05% by weight BHT (2,6-di-tert-butyl hydroxy toluene) were added.
The residual activity of the protease enzyme in all thus-formed formulations after 2 weeks and 4 weeks storage at 37° C., was determined at 40° C. in a TRIS pH 9 buffer and using tetrapeptide as substrate. For this determination, the following protocol was used:
Samples of 70 mg of the tested liquid formulation were diluted in 10.00 ml MilliQ water. 10 μl of this solution was added to an assay of 205 μl containing 74.4 mM TRIS pH9 and 0.494 mM tetrapeptide (succinyl-Ala-Ala-Pro-Phe-p-Nitroanilide). The absorbance of the tested samples at a wavelength of 450 nm was measured for 15 minutes at 40° C., using a spectrophotometer. The absolute changes in absorbance as compared to the absorbance measured on a freshly prepared calibration sample were correlated to the measured activity of such freshly prepared sample. The measured protease enzyme activity is expressed as GU/ml.
The residual enzyme activity (expressed as %) is the enzyme activity after storage of the liquid formulation concerned divided by the enzyme activity measured at t=0.
Tables 1 and 2 show the effect of the addition of 0.05% by weight of BHT on the residual enzyme activity in ‘base’ liquid detergent formulations additionally containing 0.06% by weight of the indicated perfume components, after 2 weeks storage at 37° C. respectively 4 weeks storage at 37° C.

With `CCCCCCCCCCC=CC=O` [Tridecyclenaldehyde], the “Residual activity after 2 weeks, 0.05% BHT” value amounted to 70%; the “Residual activity after 4 weeks, 0.05% BHT” value was determined as 54%; the “Residual activity after 2 weeks, No BHT” value was 14%; the “Residual activity after 4 weeks, No BHT” value is on record as 4%.

For Octenal, the “Residual activity after 2 weeks, 0.05% BHT” value turned out to be 68%; the “Residual activity after 4 weeks, 0.05% BHT” value is given as 46%; the “Residual activity after 2 weeks, No BHT” value was determined as 13%; the “Residual activity after 4 weeks, No BHT” value was 3%.

In the case of Terpinegene G, the “Residual activity after 2 weeks, 0.05% BHT” value is given as 72%; the “Residual activity after 4 weeks, 0.05% BHT” value worked out at 62%; the “Residual activity after 2 weeks, No BHT” value was 48%; the “Residual activity after 4 weeks, No BHT” value came out at 23%.

On to `CC1=CC(C)C(C=O)CC1` (centres unmarked) [Zestover], for which the “Residual activity after 2 weeks, 0.05% BHT” value came out at 82%; the “Residual activity after 4 weeks, 0.05% BHT” value was determined as 72%; the “Residual activity after 2 weeks, No BHT” value is 16%; the “Residual activity after 4 weeks, No BHT” value is listed as 5%.

Turning to `CC(C)=C1CC[C@@H](C)CC1=O` [Pulegone], the “Residual activity after 2 weeks, 0.05% BHT” value was 82%; the “Residual activity after 4 weeks, 0.05% BHT” value was determined as 76%; the “Residual activity after 2 weeks, No BHT” value was determined as 45%; the “Residual activity after 4 weeks, No BHT” value amounted to 16%.

With `CC1=CCC(=C(C)C)CC1` [Terpinolene], the “Residual activity after 2 weeks, 0.05% BHT” value is 85%; the “Residual activity after 4 weeks, 0.05% BHT” value amounted to 79%; the “Residual activity after 2 weeks, No BHT” value turned out to be 51%; the “Residual activity after 4 weeks, No BHT” value was 17%.

As to `CC(C=O)Cc1ccc(C(C)(C)C)cc1` (centres unmarked) [Lilial], the “Residual activity after 2 weeks, 0.05% BHT” value worked out at 80%; the “Residual activity after 4 weeks, 0.05% BHT” value is 68%; the “Residual activity after 2 weeks, No BHT” value turned out to be 39%; the “Residual activity after 4 weeks, No BHT” value is given as 9%.

Turning to `CCC(=O)/C=C/C1C(C)=CCCC1(C)C` (stereo not drawn) [Alpha methylionone], the “Residual activity after 2 weeks, 0.05% BHT” value is 84%; the “Residual activity after 4 weeks, 0.05% BHT” value was 78%; the “Residual activity after 2 weeks, No BHT” value is recorded as 39%; the “Residual activity after 4 weeks, No BHT” value amounted to 14%.

For the origin of these results see US7902138B2, “Liquid detergent composition” (The Sun Products Corporation, priority 2003, dated 2011).
